Laboratory results published in patent US10562887B2, “Triazolones and tetrazolones as inhibitors of ROCK” (BRISTOL-MYERS SQUIBB COMPANY, priority 2016, dated 2020).

The compounds below were run against ROCK2 (Homo sapiens (Human), UniProt O75116) (assay: ROCK2 assay (peptide phosphorylation, LABCHIP 3000 Reader)). Settings: 5 μM ATP, 1.5 μM peptide substrate.
Type: biochemical
How it was run: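 Human ROCK2 reaction in 20 mM HEPES pH 7.5, 20 mM MgCl2, 0.015% Brij-35, 4 mM DTT, with 5 μM ATP and 1.5 μM FITC-labelled peptide, DMSO <2%. Stopped with EDTA; phosphorylated and unphosphorylated peptide separated by microfluidic mobility shift. IC50 from dose-response curve fit.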

Chain of ROCK2 (O75116 whole entry, species assumed): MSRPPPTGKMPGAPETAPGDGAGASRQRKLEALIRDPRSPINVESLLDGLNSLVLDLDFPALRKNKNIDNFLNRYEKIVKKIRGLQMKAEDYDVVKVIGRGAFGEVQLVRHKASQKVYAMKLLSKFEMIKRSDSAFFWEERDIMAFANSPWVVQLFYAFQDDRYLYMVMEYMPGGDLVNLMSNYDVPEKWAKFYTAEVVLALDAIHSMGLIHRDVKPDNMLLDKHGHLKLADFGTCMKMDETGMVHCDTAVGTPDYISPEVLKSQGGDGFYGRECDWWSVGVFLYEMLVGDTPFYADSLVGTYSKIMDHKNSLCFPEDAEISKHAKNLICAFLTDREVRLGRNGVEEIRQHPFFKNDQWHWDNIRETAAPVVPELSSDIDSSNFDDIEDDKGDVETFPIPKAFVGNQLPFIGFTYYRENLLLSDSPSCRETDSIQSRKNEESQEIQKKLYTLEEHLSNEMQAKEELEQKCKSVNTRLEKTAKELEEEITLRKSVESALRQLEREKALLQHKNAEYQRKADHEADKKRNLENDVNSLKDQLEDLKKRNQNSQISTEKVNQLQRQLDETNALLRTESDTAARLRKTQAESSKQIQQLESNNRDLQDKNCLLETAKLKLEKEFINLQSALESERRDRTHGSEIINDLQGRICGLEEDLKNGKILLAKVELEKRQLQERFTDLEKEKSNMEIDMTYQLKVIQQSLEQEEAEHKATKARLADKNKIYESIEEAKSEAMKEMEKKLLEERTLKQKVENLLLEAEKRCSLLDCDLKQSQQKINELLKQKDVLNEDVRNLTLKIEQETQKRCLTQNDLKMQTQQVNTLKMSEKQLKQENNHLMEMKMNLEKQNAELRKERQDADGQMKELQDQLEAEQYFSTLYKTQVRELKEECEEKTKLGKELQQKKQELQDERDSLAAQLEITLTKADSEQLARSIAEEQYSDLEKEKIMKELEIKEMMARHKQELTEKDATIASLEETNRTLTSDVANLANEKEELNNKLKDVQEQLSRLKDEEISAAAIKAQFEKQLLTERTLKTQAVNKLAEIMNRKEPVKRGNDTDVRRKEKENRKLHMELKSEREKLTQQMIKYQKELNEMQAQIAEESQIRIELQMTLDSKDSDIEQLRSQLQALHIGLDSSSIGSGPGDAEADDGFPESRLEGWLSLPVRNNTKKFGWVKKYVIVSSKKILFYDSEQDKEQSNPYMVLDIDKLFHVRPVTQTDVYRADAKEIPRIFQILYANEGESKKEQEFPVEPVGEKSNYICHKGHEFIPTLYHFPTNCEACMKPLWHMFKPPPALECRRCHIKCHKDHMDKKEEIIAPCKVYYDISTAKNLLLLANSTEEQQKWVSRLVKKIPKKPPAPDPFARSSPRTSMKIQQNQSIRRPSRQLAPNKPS

| IC50 [nM] | Structure (SMILES) |
| --- | --- |
| 5 to 50 | O=c1n(-c2ccc(-c3cn[nH]c3)cc2)nc(CO)n1Cc1cccc(OC(F)F)c1 [Example 131, 1-(4-(1H-pyrazol-4-yl)phenyl)-4-(3-(difluoromethoxy)benzyl)-3-(hydroxymethyl)-1H-1,2,4-triazol-5(4H)-one] |
| 50 to 250 | N#Cc1cccc(Cn2c(CO)nn(-c3ccc(-c4cn[nH]c4)cc3)c2=O)c1 [Example 132, 3-((1-(4-(1H-pyrazol-4-yl)phenyl)-3-(hydroxymethyl)-5-oxo-1H-1,2,4-triazol-4(5H)-yl)methyl)benzonitrile] |
| 5 to 50 | CC(C)(O)c1nn(-c2ccc(-c3cn[nH]c3)cc2)c(=O)n1Cc1ccccc1 [Example 133, 1-(4-(1H-pyrazol-4-yl)phenyl)-4-benzyl-3-(2-hydroxypropan-2-yl)-1H-1,2,4-triazol-5(4H)-one] |
| < 5 | COc1cccc(Cn2c(C(C)(C)O)nn(-c3ccc(-c4cn[nH]c4)cc3)c2=O)c1 [Example 134, 1-(4-(1H-pyrazol-4-yl)phenyl)-3-(2-hydroxypropan-2-yl)-4-(3-methoxybenzyl)-1H-1,2,4-triazol-5(4H)-one] |
| 5 to 50 | CC(C)(O)c1nn(-c2ccc(-c3cn[nH]c3)cc2)c(=O)n1Cc1cccc(F)c1 [Example 135, 1-(4-(1H-pyrazol-4-yl)phenyl)-4-(3-fluorobenzyl)-3-(2-hydroxypropan-2-yl)-1H-1,2,4-triazol-5(4H)-one] |
| 50 to 250 | CC(C)(O)c1nn(-c2ccc(-c3cn[nH]c3)cc2)c(=O)n1Cc1cc(F)ccc1F [Example 136, 1-(4-(1H-pyrazol-4-yl)phenyl)-4-(2,5-difluorobenzyl)-3-(2-hydroxypropan-2-yl)-1H-1,2,4-triazol-5(4H)-one] |
| 5 to 50 | CC(C)(O)c1nn(-c2ccc(-c3cn[nH]c3)cc2)c(=O)n1Cc1cc(F)cc(F)c1 [Example 137, 1-(4-(1H-pyrazol-4-yl)phenyl)-4-(3,5-difluorobenzyl)-3-(2-hydroxypropan-2-yl)-1H-1,2,4-triazol-5(4H)-one] |
| 50 to 250 | CC(C)(O)c1nn(-c2ccc(-c3cn[nH]c3)cc2)c(=O)n1Cc1c(F)cccc1F [Example 138, 1-(4-(1H-pyrazol-4-yl)phenyl)-4-(2,6-difluorobenzyl)-3-(2-hydroxypropan-2-yl)-1H-1,2,4-triazol-5(4H)-one] |
| 50 to 250 | CC(C)(O)c1nn(-c2ccc(-c3cn[nH]c3)cc2)c(=O)n1Cc1cccc(OC(F)F)c1 [Example 139, 1-(4-(1H-pyrazol-4-yl)phenyl)-4-(3-(difluoromethoxy)benzyl)-3-(2-hydroxypropan-2-yl)-1H-1,2,4-triazol-5(4H)-one] |
| 5 to 50 | COc1cccc(Cn2c(CN(C)C)nn(-c3ccc(-c4cn[nH]c4)cc3)c2=O)c1 [Example 142, 1-(4-(1H-pyrazol-4-yl)phenyl)-3-((dimethylamino)methyl)-4-(3-methoxybenzyl)-1H-1,2,4-triazol-5(4H)-one] |
| 5 to 50 | COc1cccc(Cn2c(CN3CCOCC3)nn(-c3ccc(-c4cn[nH]c4)cc3)c2=O)c1 [Example 143, 1-(4-(1H-pyrazol-4-yl)phenyl)-4-(3-methoxybenzyl)-3-(morpholinomethyl)-1H-1,2,4-triazol-5(4H)-one] |
| < 5 | COc1cc(F)cc(Cn2c(CO)nn(-c3ccc(-c4cn[nH]c4)cc3)c2=O)c1 [Example 144, 1-(4-(1H-pyrazol-4-yl)phenyl)-4-(3-fluoro-5-methoxybenzyl)-3-(hydroxymethyl)-1H-1,2,4-triazol-5(4H)-one] |
| 5 to 50 | COc1cc(F)cc(Cn2c(C(C)(C)O)nn(-c3ccc(-c4cn[nH]c4)cc3)c2=O)c1 [Example 145, 1-(4-(1H-pyrazol-4-yl)phenyl)-4-(3-fluoro-5-methoxybenzyl)-3-(2-hydroxypropan-2-yl)-1H-1,2,4-triazol-5(4H)-one] |
| 5 to 50 | COc1cccc(Cn2c(CN3CCCC3)nn(-c3ccc(-c4cn[nH]c4)cc3)c2=O)c1 [Example 146, 1-(4-(1H-pyrazol-4-yl)phenyl)-4-(3-methoxybenzyl)-3-(pyrrolidin-1-ylmethyl)-1H-1,2,4-triazol-5(4H)-one] |
